Results as given in PubChem BioAssay (NCI).
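All cell lines were grown in 96-well plates and treated with compound for 48 hours. TGI denotes the concentration required for complete inhibition of growth.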

Legend:
Test in all cases: NCI-60 cell line screen, 48 h
HCT-15 colon = tested on: HCT-15 colon
OVCAR-3 ovarian = tested on: OVCAR-3 ovarian
HCC-2998 colon = tested on: HCC-2998 colon
A498 renal = tested on: A498 renal
DU-145 prostate = tested on: DU-145 prostate
SK-OV-3 ovarian = tested on: SK-OV-3 ovarian
UACC-62 melanoma = tested on: UACC-62 melanoma
NCI-H23 lung = tested on: NCI-H23 lung
BT-549 breast = tested on: BT-549 breast
SNB-19 CNS = tested on: SNB-19 CNS
CAKI-1 renal = tested on: CAKI-1 renal
A549 NSCLC = tested on: A549 NSCLC
NCI-H226 lung = tested on: NCI-H226 lung
HT29 colon = tested on: HT29 colon
HS 578T breast = tested on: HS 578T breast
MDA-MB-231 breast = tested on: MDA-MB-231 breast
NCI-H522 lung = tested on: NCI-H522 lung
MALME-3M melanoma = tested on: MALME-3M melanoma
SNB-75 CNS = tested on: SNB-75 CNS
SK-MEL-28 melanoma = tested on: SK-MEL-28 melanoma
IGROV1 ovarian = tested on: IGROV1 ovarian
UACC-257 melanoma = tested on: UACC-257 melanoma
COLO 205 colon = tested on: COLO 205 colon
OVCAR-4 ovarian = tested on: OVCAR-4 ovarian
TK-10 renal = tested on: TK-10 renal
HL-60(TB) leukemia = tested on: HL-60(TB) leukemia
HOP-92 NSCLC = tested on: HOP-92 NSCLC
HOP-62 NSCLC = tested on: HOP-62 NSCLC
SF-539 CNS = tested on: SF-539 CNS
NCI/ADR-RES ovarian = tested on: NCI/ADR-RES ovarian
K-562 leukemia = tested on: K-562 leukemia
MDA-MB-435 = tested on: MDA-MB-435
786-0 renal = tested on: 786-0 renal
M14 melanoma = tested on: M14 melanoma
SW-620 colon = tested on: SW-620 colon
SN12C renal = tested on: SN12C renal
HCT-116 colon = tested on: HCT-116 colon
CCRF-CEM leukemia = tested on: CCRF-CEM leukemia
SF-268 CNS = tested on: SF-268 CNS
MDA-N = tested on: MDA-N
ACHN renal = tested on: ACHN renal
RXF 393 renal = tested on: RXF 393 renal
RPMI-8226 leukemia = tested on: RPMI-8226 leukemia
SR leukemia = tested on: SR leukemia
SF-295 CNS = tested on: SF-295 CNS
T-47D breast = tested on: T-47D breast
OVCAR-8 ovarian = tested on: OVCAR-8 ovarian
NCI-H460 lung = tested on: NCI-H460 lung
SK-MEL-5 melanoma = tested on: SK-MEL-5 melanoma
EKVX NSCLC = tested on: EKVX NSCLC
LOX IMVI melanoma = tested on: LOX IMVI melanoma
MOLT-4 leukemia = tested on: MOLT-4 leukemia
KM12 colon = tested on: KM12 colon
UO-31 renal = tested on: UO-31 renal
SK-MEL-2 melanoma = tested on: SK-MEL-2 melanoma
MCF7 breast = tested on: MCF7 breast
U251 CNS = tested on: U251 CNS
OVCAR-5 ovarian = tested on: OVCAR-5 ovarian
PC-3 prostate = tested on: PC-3 prostate
DMS 114 small cell lung = tested on: DMS 114 small cell lung
M19-MEL melanoma = tested on: M19-MEL melanoma
SNB-78 CNS = tested on: SNB-78 CNS
DLD-1 colon = tested on: DLD-1 colon
LXFL 529 NSCLC = tested on: LXFL 529 NSCLC
DMS 273 small cell lung = tested on: DMS 273 small cell lung
KM20L2 colon = tested on: KM20L2 colon
RXF-631 renal = tested on: RXF-631 renal
HOP-18 NSCLC = tested on: HOP-18 NSCLC
XF 498 CNS = tested on: XF 498 CNS

Measured: TGI

CC(C)(C)OC(=O)/N=C/c1c(O)c2ccccc2oc1=O
66.7 µM: TK-10 renal
52.6 µM: CAKI-1 renal
65.9 µM: HS 578T breast
0.0208 µM: NCI-H522 lung
45.2 µM: SK-MEL-2 melanoma
78.5 µM: A498 renal
64.7 µM: NCI-H226 lung
0.0852 µM: SK-OV-3 ovarian
86 µM: MDA-MB-231 breast
not listed: DMS 114 small cell lung | M19-MEL melanoma | SNB-78 CNS | DLD-1 colon | LXFL 529 NSCLC | DMS 273 small cell lung | KM20L2 colon | RXF-631 renal | HOP-18 NSCLC | XF 498 CNS
> 100 µM: all other assays above

CC(=O)Nc1ccc2c(c1)C(=O)c1ccccc1-2
not listed: A498 renal | DU-145 prostate | BT-549 breast | CAKI-1 renal | HS 578T breast | MDA-MB-231 breast | OVCAR-4 ovarian | HOP-92 NSCLC | NCI/ADR-RES ovarian | MDA-MB-435 | MDA-N | T-47D breast | SK-MEL-5 melanoma | SK-MEL-2 melanoma | MCF7 breast | OVCAR-5 ovarian | PC-3 prostate | RXF-631 renal | HOP-18 NSCLC | XF 498 CNS
> 100 µM: all other assays above

CN(C)CCNC(=O)c1cccc2c1nc(-c1cccnc1)c1ccccc12
64 µM: HOP-18 NSCLC
15.7 µM: A498 renal
26.9 µM: HT29 colon
15.9 µM: NCI-H23 lung
20.1 µM: HCT-15 colon | SF-295 CNS
26.3 µM: SNB-78 CNS | IGROV1 ovarian
15.1 µM: SK-MEL-5 melanoma
22.3 µM: HOP-62 NSCLC
16.1 µM: UACC-257 melanoma
16.4 µM: COLO 205 colon
21.2 µM: DLD-1 colon
22 µM: SNB-75 CNS
10.8 µM: UO-31 renal
16.5 µM: NCI-H226 lung
14.2 µM: DMS 273 small cell lung
13.8 µM: HCT-116 colon
24 µM: U251 CNS
28.8 µM: HL-60(TB) leukemia
20.2 µM: HCC-2998 colon
36.8 µM: SNB-19 CNS
12.6 µM: LOX IMVI melanoma
25.3 µM: SW-620 colon
16.7 µM: RXF-631 renal
19.9 µM: M14 melanoma
17.1 µM: RXF 393 renal
31.2 µM: SK-OV-3 ovarian
43.5 µM: CCRF-CEM leukemia
46.5 µM: KM12 colon
18.8 µM: DMS 114 small cell lung | EKVX NSCLC
34 µM: OVCAR-5 ovarian
14.4 µM: ACHN renal
54.8 µM: OVCAR-8 ovarian
12.5 µM: NCI-H460 lung
22.2 µM: SF-268 CNS
18.3 µM: A549 NSCLC
24.6 µM: 786-0 renal
42 µM: OVCAR-3 ovarian
6.32 µM: MOLT-4 leukemia
23.6 µM: SK-MEL-28 melanoma
9.74 µM: TK-10 renal
18.4 µM: OVCAR-4 ovarian
18.5 µM: M19-MEL melanoma
35.4 µM: SN12C renal
15.2 µM: UACC-62 melanoma
22.8 µM: SK-MEL-2 melanoma
85.7 µM: CAKI-1 renal
65.4 µM: K-562 leukemia
10.7 µM: SF-539 CNS
19.1 µM: HOP-92 NSCLC

CC1=N/C(=C\c2ccc(C)cc2)C(=O)O1
not listed: A498 renal | DU-145 prostate | BT-549 breast | A549 NSCLC | NCI-H226 lung | HS 578T breast | MDA-MB-231 breast | SNB-75 CNS | UACC-257 melanoma | HL-60(TB) leukemia | HOP-62 NSCLC | SF-539 CNS | NCI/ADR-RES ovarian | MDA-MB-435 | 786-0 renal | HCT-116 colon | SF-268 CNS | MDA-N | ACHN renal | RPMI-8226 leukemia | T-47D breast | NCI-H460 lung | EKVX NSCLC | LOX IMVI melanoma | MCF7 breast | PC-3 prostate | DMS 114 small cell lung | DMS 273 small cell lung | RXF-631 renal | HOP-18 NSCLC
> 100 µM: all other assays above
